Data on 26 compounds can be found in patent US12612409B2, “Pyrrolopyrimidines as CFTR potentiators” (Cystic Fibrosis Foundation, priority 2016, dated 2026).

The target of experiment [1] is T1, CFTR in F508del/F508del primary CF hBE cells (Homo sapiens, UniProt P13569, DEL508-508).
T1 construct: Primary cystic fibrosis human bronchial epithelial (CF hBE) cells were expanded and cultured; endogenous in cells; host or cells: primary CF human bronchial epithelial cells, genotype F508del/F508del
In words: Ussing chamber electrophysiology assay of CFTR potentiation in F508del/F508del CF bronchial epithelial cells (27° C.). In kind it is cell-based. The procedure, abridged:
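Short-circuit current was recorded under zero-voltage clamp across primary CF bronchial epithelia cultured >30 days at air/liquid interface, bathed apically and basolaterally in HEPES-buffered saline. Sequential additions: amiloride (30 uM), forskolin (10 uM), compound at 4 increasing levels, CFTRinh-172 (20 uM). Responses normalised between DMSO (0%) and maximal positive-control potentiator (100%).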

Experiment [2] addresses T2, recombinant F508del V470 CFTR in Fischer rat thyroid (FRT) cells (Homo sapiens, UniProt P13569, DEL508-508).
T2 construct: expressed in transfected cells
In words: FRT ion flux assay of F508del CFTR potentiation. In kind it is cell-based. The note with it: FRT cells expressing F508del V470 CFTR, forskolin 20 uM, 27° C. pre-incubation. In a few lines: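 Potentiation read as YFP quench ~21 s after iodide buffer addition, as second/initial fluorescence ratio normalised between DMSO (0%) and reference potentiator (100%).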

T2 sequence (P13569 with tags, fused parts or gaps DEL508-508): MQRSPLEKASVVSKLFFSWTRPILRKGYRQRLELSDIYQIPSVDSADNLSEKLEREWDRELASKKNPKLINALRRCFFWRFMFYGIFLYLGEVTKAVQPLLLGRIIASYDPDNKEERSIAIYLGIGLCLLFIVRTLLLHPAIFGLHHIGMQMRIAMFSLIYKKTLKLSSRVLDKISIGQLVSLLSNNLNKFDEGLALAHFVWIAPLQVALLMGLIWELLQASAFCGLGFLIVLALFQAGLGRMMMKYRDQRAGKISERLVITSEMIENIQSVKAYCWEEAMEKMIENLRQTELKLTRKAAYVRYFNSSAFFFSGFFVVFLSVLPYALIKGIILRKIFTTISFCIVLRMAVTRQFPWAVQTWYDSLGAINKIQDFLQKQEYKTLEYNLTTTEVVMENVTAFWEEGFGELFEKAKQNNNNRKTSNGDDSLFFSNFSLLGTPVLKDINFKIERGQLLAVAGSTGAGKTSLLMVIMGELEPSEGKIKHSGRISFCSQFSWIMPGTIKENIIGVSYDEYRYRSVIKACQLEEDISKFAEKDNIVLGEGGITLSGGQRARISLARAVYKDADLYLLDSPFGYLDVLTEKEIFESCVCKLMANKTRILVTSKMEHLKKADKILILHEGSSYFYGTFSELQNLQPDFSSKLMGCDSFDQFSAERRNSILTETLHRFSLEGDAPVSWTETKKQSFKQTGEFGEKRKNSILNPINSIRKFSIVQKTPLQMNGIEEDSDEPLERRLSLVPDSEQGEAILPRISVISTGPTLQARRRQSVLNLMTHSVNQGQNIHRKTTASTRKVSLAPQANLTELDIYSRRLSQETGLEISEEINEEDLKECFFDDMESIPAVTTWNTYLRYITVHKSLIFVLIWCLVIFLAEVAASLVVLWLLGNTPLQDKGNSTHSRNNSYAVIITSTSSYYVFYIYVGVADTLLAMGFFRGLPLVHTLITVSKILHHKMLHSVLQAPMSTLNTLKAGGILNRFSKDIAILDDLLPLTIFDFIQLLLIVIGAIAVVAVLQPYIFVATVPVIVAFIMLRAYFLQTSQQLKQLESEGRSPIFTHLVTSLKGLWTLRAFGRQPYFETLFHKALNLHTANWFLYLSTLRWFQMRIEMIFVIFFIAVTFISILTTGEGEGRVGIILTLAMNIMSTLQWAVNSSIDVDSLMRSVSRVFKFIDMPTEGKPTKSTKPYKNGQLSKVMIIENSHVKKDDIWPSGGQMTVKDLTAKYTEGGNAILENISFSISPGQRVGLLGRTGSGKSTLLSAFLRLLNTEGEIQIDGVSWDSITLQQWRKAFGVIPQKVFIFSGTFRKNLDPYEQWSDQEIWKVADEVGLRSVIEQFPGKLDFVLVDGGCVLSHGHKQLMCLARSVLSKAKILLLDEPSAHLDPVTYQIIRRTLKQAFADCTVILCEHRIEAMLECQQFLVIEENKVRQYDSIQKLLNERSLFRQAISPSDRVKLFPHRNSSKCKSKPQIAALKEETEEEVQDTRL
T1 sequence (P13569 with tags, fused parts or gaps DEL508-508): as above

The EC50 is the concentration giving half of the maximal effect. As to `COc1ncncc1-c1cn(Cc2cn(-c3ccccc3F)nn2)c2ncnc(N)c12` [Example 200, 7-{[1-(2-Fluorophenyl)-1H-1,2,3-triazol-4-yl]methyl}-5-(4-methoxypyrimidin-5-yl)-7H-pyrrolo[2,3-d]pyrimidin-4-amine], the figures for the EC50 in experiment [1] and in experiment [2] were 0.478 µM and 0.1 µM, respectively.

`COc1ncccc1-c1cn(Cc2cn(-c3ccccc3F)nn2)c2nc(C)nc(N)c12` [Example 202, 7-{[1-(2-Fluorophenyl)-1H-1,2,3-triazol-4-yl]methyl}-5-(2-methoxypyridin-3-yl)-2-methyl-7H-pyrrolo[2,3-d]pyrimidin-4-amine]: the figures for the concentration for a half-maximal effect (EC50) in experiment [1] and in experiment [2] were 0.798 µM and 0.922 µM, respectively.

Take `COc1ncncc1-c1cn(Cc2cn(-c3ccccc3F)nn2)c2nc(C)nc(N)c12` [Example 203, 7-{[1-(2-fluorophenyl)-1H-1,2,3-triazol-4-yl]methyl}-5-(4-methoxypyrimidin-5-yl)-2-methyl-7H-pyrrolo[2,3-d]pyrimidin-4-amine]: the EC50 is 2.53 µM in experiment [1] and 1.61 µM in experiment [2].

Take `COc1nc(C(F)(F)F)ccc1-c1cn(Cc2cn(-c3ccccc3F)nn2)c2ncnc(N)c12` [Example 206, 7-{[1-(2-fluorophenyl)-1H-1,2,3-triazol-4-yl]methyl}-5-[2-methoxy-6-(trifluoromethyl)pyridin-3-yl]-7H-pyrrolo[2,3-d]pyrimidin-4-amine]: the EC50 was determined as 0.0108 µM in experiment [1] and 0.0229 µM in experiment [2].

Consider `COc1cccnc1-c1cn(Cc2cn(-c3ccccc3F)nn2)c2ncnc(N)c12` [Example 207, 7-{[1-(2-fluorophenyl)-1H-1,2,3-triazol-4-yl]methyl}-5-(3-methoxypyridin-2-yl)-7H-pyrrolo[2,3-d]pyrimidin-4-amine], for which the EC50 worked out at 0.238 µM in experiment [1] and 0.226 µM in experiment [2].

As for `Cc1cccc(-n2cc(C(C)n3cc(-c4ccc(Cl)cc4)c4c(N)ncnc43)nn2)c1` (stereo not shown) [Example 208, 5-(4-Chlorophenyl)-7-{1-[1-(3-methylphenyl)-1H-1,2,3-triazol-4-yl]ethyl}-7H-pyrrolo[2,3-d]pyrimidin-4-amine], the EC50 worked out at 0.055 µM in experiment [1] and 0.404 µM in experiment [2].

For the compound `Cc1nc(N)c2c(-c3ccc(Cl)cc3)cn(C(C)c3cn(-c4ccccc4F)nn3)c2n1` (stereo not shown) [Example 209, 5-(4-Chlorophenyl)-7-{1-[1-(2-fluorophenyl)-1H-1,2,3-triazol-4-yl]ethyl}-2-methyl-7H-pyrrolo[2,3-d]pyrimidin-4-amine], the figures for the 50% effective concentration (EC50) in experiment [1] and in experiment [2] were 0.295 µM and 0.343 µM, respectively.

On to `COc1ncccc1-c1cn(Cc2cn(-c3ccccc3F)nn2)c2ncnc(N)c12` [Example 210, 7-{[1-(2-Fluorophenyl)-1H-1,2,3-triazol-4-yl]methyl}-5-(2-methoxy-pyridin-3-yl)-7H-pyrrolo[2,3-d]pyrimidin-4-amine], for which the results for the half-maximal effective concentration (EC50) in experiment [1] and in experiment [2] were 0.158 µM and 0.123 µM, respectively.

Regarding `CCC(c1cn(-c2ccccc2F)nn1)n1cc(-c2ccc(Cl)cc2)c2c(N)ncnc21` (stereo not shown) [Example 211, 5-(4-Chlorophenyl)-7-{1-[1-(2-fluorophenyl)-1H-1,2,3-triazol-4-yl]propyl}-7H-pyrrolo[2,3-d]pyrimidin-4-amine], the values for the 50% effective concentration (EC50) in experiment [1] and in experiment [2] were 0.0259 µM and 0.109 µM, respectively.

As to `CC(c1cn(-c2ccccc2F)nn1)n1cc(-c2ccc(OC3CC3)cc2)c2c(N)ncnc21` (stereo not shown) [Example 212, 5-[4-(Cyclopropyloxy)phenyl]-7-{1-[1-(2-fluorophenyl)-1H-1,2,3-triazol-4-yl]ethyl}-7H-pyrrolo[2,3-d]pyrimidin-4-amine], the EC50 in experiment [1] amounted to 0.0122 µM; in experiment [2], 0.0682 µM.

Turning to `CC(c1cn(-c2ccccc2F)nn1)n1cc(-c2ccc(OC3CC3)nc2)c2c(N)ncnc21` (stereo not shown) [Example 213, 5-[6-(Cyclopropyloxy)pyridin-3-yl]-7-{1-[1-(2-fluorophenyl)-1H-1,2,3-triazol-4-yl]ethyl}-7H-pyrrolo[2,3-d]pyrimidin-4-amine], the half-maximal effective concentration (EC50) was 0.0231 µM in experiment [1] and 0.0586 µM in experiment [2].

In the case of `CC(c1cn(-c2ncccc2F)nn1)n1cc(-c2ccc(OC3CC3)cc2)c2c(N)ncnc21` (stereo not shown) [Example 214, 5-[4-(Cyclopropoxy)phenyl]-7-{1-[1-(3-fluoropyridin-2-yl)-1H-1,2,3-triazol-4-yl]ethyl}-7H-pyrrolo[2,3-d]pyrimidin-4-amine], the concentration giving a half-maximal response (EC50) was determined as 0.0396 µM in experiment [1] and 0.0906 µM in experiment [2].

`COc1ncccc1-c1cn(C(C)c2cn(-c3ccccc3F)nn2)c2ncnc(N)c12` (stereo not shown) [Example 215, 7-{1-[1-(2-Fluorophenyl)-1H-1,2,3-triazol-4-yl]ethyl}-5-(2-methoxypyridin-3-yl)-7H-pyrrolo [2,3-d]pyrimidin-4-amine]: the EC50 in experiment [1] amounted to 0.184 µM; in experiment [2] it was 0.0793 µM.

`CC(c1cn(-c2ccccc2F)nn1)n1cc(-c2cnc(C(F)(F)F)nc2)c2c(N)ncnc21` (stereo not shown) [Example 216, 7-{1-[1-(2-Fluorophenyl)-1H-1,2,3-triazol-4-yl]ethyl}-5-[2-(trifluoromethyl)pyrimidin-5-yl]-7H-pyrrolo[2,3-d]pyrimidin-4-amine]: the EC50 in experiment [1] was 0.0588 µM; in experiment [2] it was 0.0252 µM.

Consider `CCC(c1cn(-c2ccccc2F)nn1)n1cc(-c2cc(F)cnc2OC)c2c(N)ncnc21` (stereo not shown) [Example 223, 7-{1-[1-(2-Fluorophenyl)-1H-1,2,3-triazol-4-yl]propyl}-5-(5-fluoro-2-methoxypyridin-3-yl)-7H-pyrrolo[2,3-d]pyrimidin-4-amine], for which the results for the EC50 in experiment [1] and in experiment [2] were 0.00723 µM and 0.0111 µM, respectively.

`CCC(c1cn(-c2ccccc2F)nn1)n1cc(-c2cnc(C(F)(F)F)nc2)c2c(N)ncnc21` (stereo not shown) [Example 224, 7-{1-[1-(2-Fluorophenyl)-1H-1,2,3-triazol-4-yl]propyl}-5-[2-(trifluoromethyl)pyrimidin-5-yl]-7H-pyrrolo[2,3-d] pyrimidin-4-amine]: the results for the EC50 in experiment [1] and in experiment [2] were 0.019 µM and 0.00904 µM, respectively.

Take `CCC(c1cn(-c2ccccc2F)nn1)n1cc(-c2cnco2)c2c(N)ncnc21` (stereo not shown) [Example 225, 7-{1-[1-(2-Fluorophenyl)-1H-1,2,3-triazol-4-yl]propyl}-5-(1,3-oxazol-5-yl)-7H-pyrrolo[2,3-d]pyrimidin-4-amine]: the 50% effective concentration (EC50) in experiment [1] worked out at 0.0932 µM; in experiment [2] it was 0.0373 µM.

As to `CCC(c1cn(-c2ccccc2F)nn1)n1cc(C2CC2)c2c(N)ncnc21` (stereo not shown) [Example 236, 5-cyclopropyl-7-{1-[1-(2-fluorophenyl)-1H-1,2,3-triazol-4-yl]propyl}-7H-pyrrolo[2,3-d]pyrimidin-4-amine], the figures for the EC50 in experiment [1] and in experiment [2] were 0.0388 µM and 0.056 µM, respectively.

As for `CC(c1cn(-c2ccccc2F)nn1)n1cc(C2CC2)c2c(N)ncnc21` (stereo not shown) [Example 238, 5-Cyclopropyl-7-{1-[1-(2-fluorophenyl)-1H-1,2,3-triazol-4-yl]ethyl}-7H-pyrrolo[2,3-d]pyrimidin-4-amine], the EC50 in experiment [1] was 0.133 µM; in experiment [2], 0.0606 µM.

On to `CC(c1cn(-c2ccccc2F)nn1)n1cc(-c2ccc(C#N)c(F)c2)c2c(N)ncnc21` (stereo not shown) [Example 239, 4-(4-Amino-7-{1-[1-(2-fluorophenyl)-1H-1,2,3-triazol-4-yl)ethyl]-7H-pyrrolo[2,3-d]pyrimidin-5-yl}-2-fluorobenzonitrile], for which the figures for the EC50 in experiment [1] and in experiment [2] were 0.083 µM and 0.0944 µM, respectively.

With `CCC(c1cn(-c2cc(C(F)(F)F)ccn2)nn1)n1cc(-c2cncnc2OC)c2c(N)ncnc21` (stereo not shown) [Example 242, 5-(4-Methoxypyrimidin-5-yl)-7-(1-{1-[4-(trifluoromethyl)pyridin-2-yl]-1H-1,2,3-triazol-4-yl]propyl}-7H-pyrrolo[2,3-d]pyrimidin-4-amine], the figures for the EC50 in experiment [1] and in experiment [2] were 0.205 µM and 0.378 µM, respectively.

On to `COc1ncncc1-c1cn(C(c2cn(-c3ccccc3F)nn2)C2CC2)c2ncnc(N)c12` (stereo not shown) [Example 243, 7-{Cyclopropyl[1-(2-fluorophenyl)-1H-1,2,3-triazol-4-yl]methyl}-5-(4-methoxypyrimidin-5-yl)-7H-pyrrolo[2,3-d]pyrimidin-4-amine], for which the 50% effective concentration (EC50) stood at 0.0953 µM in experiment [1] and 0.0562 µM in experiment [2].

As for `CCC(c1cn(-c2ccccc2F)nn1)n1cc(-c2cncnc2OC)c2c(N)ncnc21` (stereo not shown) [Example 244, 7-{1-[1-(2-Fluorophenyl)-1H-1,2,3-triazol-4-yl]propyl}-5-[4-methoxypyrimidin-5-yl]-7H-pyrrolo[2,3-d]pyrimidin-4-amine], the EC50 in experiment [1] was determined as 0.0616 µM; in experiment [2] it was 0.0341 µM.

As to `CC(c1cn(-c2ccccc2F)nn1)n1cc(C2CCC2)c2c(N)ncnc21` (stereo not shown) [Example 247, 5-Cyclobutyl-7-{1-[1-(2-fluorophenyl)-1H-1,2,3-triazol-4-yl]ethyl}-7H-pyrrolo[2,3-d]pyrimidin-4-amine], the EC50 in experiment [1] is 0.0124 µM; in experiment [2], 0.0162 µM.

Consider `CCC(c1cn(-c2ccccc2)nn1)n1cc(-c2cncnc2OC)c2c(N)ncnc21` (stereo not shown) [Example 248, 5-(4-Methoxypyrimidin-5-yl)-7-{1-[1-phenyl-1H-1,2,3-triazol-4-yl]propyl}-7H-pyrrolo[2,3-d]pyrimidin-4-amine], for which the EC50 was found to be 0.0554 µM in experiment [1] and 0.0259 µM in experiment [2].

As for `COc1nc(C(F)(F)F)ncc1-c1cn(C(C)c2cn(-c3ccccc3F)nn2)c2ncnc(N)c12` (stereo not shown) [Example 249, 7-{1-[1-(2-Fluorophenyl)-1H-1,2,3-triazol-4-yl]ethyl}-5-[4-methoxy-2-(trifluoromethyl)pyrimidin-5-yl]-7H-pyrrolo[2,3-d]pyrimidin-4-amine], the concentration giving a half-maximal response (EC50) in experiment [1] was found to be 0.0277 µM; in experiment [2], 0.0122 µM.
